Source: ChEMBL document CHEMBL2346633, “Design, synthesis, and binding mode prediction of 2-pyridone-based selective CB2 receptor agonists” (Bioorg Med Chem, 2013)

How the values were obtained:
Cannabinoid receptor 2 [1] = molecular target: T1, Cannabinoid receptor 2 (Homo sapiens, UniProt P34972); assay: Displacement of [H3]-CP-55940 from human recombinant CB2 receptor expressed in CHO cells; type: cell-based
Cannabinoid receptor 1 = Cannabinoid receptor 1 (Homo sapiens, UniProt P21554); assay: Displacement of [H3]-CP-55940 from human recombinant CB1 receptor expressed in CHO cells; type: cell-based
Sequence of Cannabinoid receptor 1 (P21554 whole entry, looked up): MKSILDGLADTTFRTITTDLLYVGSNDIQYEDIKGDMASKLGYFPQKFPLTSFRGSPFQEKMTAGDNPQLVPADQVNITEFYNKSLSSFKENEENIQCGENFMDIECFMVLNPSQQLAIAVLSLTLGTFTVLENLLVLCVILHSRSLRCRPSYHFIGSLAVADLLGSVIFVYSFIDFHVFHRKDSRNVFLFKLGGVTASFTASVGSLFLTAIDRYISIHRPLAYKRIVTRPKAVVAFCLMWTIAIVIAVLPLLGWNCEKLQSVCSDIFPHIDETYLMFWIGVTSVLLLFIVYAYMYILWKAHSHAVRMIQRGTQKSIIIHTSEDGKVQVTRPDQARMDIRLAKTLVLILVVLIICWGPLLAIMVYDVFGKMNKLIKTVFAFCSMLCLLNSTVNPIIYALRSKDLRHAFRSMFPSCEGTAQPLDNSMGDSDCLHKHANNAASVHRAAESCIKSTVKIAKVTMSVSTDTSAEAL

Homo sapiens = species: Homo sapiens; assay: Selectivity ratio of Ki for human recombinant CB1 receptor to Ki for human recombinant CB2 receptor
Cannabinoid receptor 2 [2] = molecular target: T1, Cannabinoid receptor 2; assay: Agonist activity at human recombinant CB2 receptor expressed in CHO cells assessed as inhibition of forskolin-induced accumulation of cAMP; type: functional, cell-based

T1 sequence (P34972 whole entry): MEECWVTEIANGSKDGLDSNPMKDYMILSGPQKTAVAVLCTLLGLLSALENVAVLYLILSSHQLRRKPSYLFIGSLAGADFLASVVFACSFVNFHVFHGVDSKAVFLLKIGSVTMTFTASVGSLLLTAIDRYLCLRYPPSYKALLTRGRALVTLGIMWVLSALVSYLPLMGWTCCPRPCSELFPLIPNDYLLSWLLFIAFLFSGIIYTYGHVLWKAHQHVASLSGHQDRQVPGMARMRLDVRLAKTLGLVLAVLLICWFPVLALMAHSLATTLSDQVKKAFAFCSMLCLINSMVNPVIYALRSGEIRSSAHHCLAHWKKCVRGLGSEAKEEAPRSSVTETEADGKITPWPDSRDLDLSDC

Compound | Ki (Cannabinoid receptor 2 [1]) [nM] | Ki (Cannabinoid receptor 1) [nM] | Ratio Ki (Homo sapiens) | IC50 (Cannabinoid receptor 2 [2]) [nM]
CCCn1c(C)c(C)cc(Oc2nc3ccccc3o2)c1=S | 276 |  |  | 
CCCCn1cccc(Oc2nc3ccccc3o2)c1=S | 490 |  |  | 
CCCCn1c(C)c(C)cc(NC(=O)c2cccc(C)c2)c1=O | 42 | 343 |  | 
CCCCn1c(C)c(C)cc(NC(=O)c2ccccc2Cl)c1=O |  | 391 |  | 
CCCCn1c(C)c(C)cc(NC(=O)c2cccc3ccccc23)c1=O | 12 | 19 | 1.6 | 
CCCCn1c(C)c(C)cc(NC(=O)c2ccccc2F)c1=O | 88 | 617 |  | 
CCn1c(C)c(C)cc(Oc2nc3ccccc3o2)c1=S | 3850 |  |  | 
CN1CCCCC1Cn1cc(C(=O)c2cc([N+](=O)[O-])ccc2I)c2ccccc21 (stereo unspecified) |  |  | 80 | 
CCCCn1c(C)c(C)cc(Oc2nc3ccccc3o2)c1=O | 976 |  |  | 
CCN1C(=O)C(Sc2nc3ccccc3o2)c2ccccc2C1C (stereo unspecified) | 42 | > 5000 |  | 
CCCCn1c(C)c(C)cc(NC(=O)c2ccc3ccccc3c2)c1=O | 768 | > 5000 |  | 
CCCCn1c(C)c(C)cc(NC(=O)c2ccc(C)cc2)c1=O | 72 | 854 |  | 
CCCCn1c(C)c(C)cc(NC(=O)Cc2ccccc2)c1=O | 1310 | > 5000 |  | 
CCCCn1c(C)c(C)cc(NC(C)=O)c1=O | > 5000 | > 5000 |  | 
CCCCn1c(C)c(C)cc(NC(=O)c2ccccc2C)c1=O |  | 390 |  | 13
CCCCCCn1c(C)c(C)cc(Oc2nc3ccccc3o2)c1=S | 609 |  |  | 
CCCCn1ccc(C)c(Oc2nc3ccccc3o2)c1=S | 235 |  |  | 
CCCCCn1c(C)c(C)cc(Oc2nc3ccccc3o2)c1=S | 214 |  |  | 
CCCCn1c(C)c(C)cc(NC(=O)c2ccccc2)c1=O | 89 | 1380 |  | 
CCCCn1cc(C)cc(Oc2nc3ccccc3o2)c1=S | 236 |  |  | 
